Assay: Radiochemical stability by radioactive HPLC
Assay type: physicochemical
Conditions: physiologic buffers; PBS containing 10% ethanol, up to 120 min
Method: Stability analyses of HPLC-purified […]: Radiochemical stability testing of the synthesized [^18F]JW199, was performed with multiple HPLC injections using increasing amounts of activity to keep the peak heights roughly similar. 64 μCi was injected 83 minutes post synthesis, and this was considered the t=0 time point. The subsequent injection was 79 μCi at 30-minutes, followed by three more injections of 86, 106, and 117 μCi at 60, 90, and 120-minutes respectively.

CC(C)c1ccccc1OC(=O)NCCc1ccc(OCC[18F])cc1 [[^18F]JW199, fluorine-18-labeled 2-isopropylphenyl-(4-(2-fluoroethoxy)phenethyl)carbamate]
chemical stability: chemically stable

Source: patent US12138320B2, “Composition and methods for tumor imaging and treatment” (The University of Chicago, priority 2020, dated 2024)
